Data taken from patent US7671092B2, “Paclitaxel enhancer compounds” (Synta Pharmaceuticals Corp., priority 2001, dated 2010).
Values joined by “and” are separate entries in the source; they are usually repeats but may differ in a detail not shown here. Equal values may be shown once.

How the values were obtained:
[1] = tested on: MDA-435 human breast tumor; experiment: In vivo tumor growth inhibition assay, compound plus Paclitaxel given IV to tumor-bearing mice; parameters: species or system CD-1 nu/nu mice; settings: for % Tumor Growth: vehicle = 100
Description: A supplemented media was prepared from 50% DMEM/Dulbecco Modified Eagle Medium (High Glucose), 50% RPMI 1640, 10% FBS/Fetal Bovine Serum (Hybridoma Tested; Sterile Filtered), 1% L-Glutamine, 1% Penicillin-Streptomycin, 1% MEM Sodium Pyruvate and 1% MEM Non-Essential Amino Acids. FBS was obtained from Sigma Chemical Co. and other ingredients were obtained from Invitrogen Life Technologies, USA). The supplemental media was warmed to 37° C. and 50 ml of media was added to a 175 cm^2 tissue culture flask.
The cells used in the assay were MDA-435 Human Breast Carcinoma from the American Type Culture Collection. 1 vial of MDA-435 cells from the liquid nitrogen frozen cell stock was removed. The frozen vial of cells was immediately placed into a 37° C. water bath and gently swirled until thawed. The freeze-vial was wiped with 70% ethanol and cells were immediately pipetted into the 175 cm^2 tissue culture flask containing supplemented media. The cells were incubated overnight and the media was removed and replaced with fresh supplemented media the next day. The flask was incubated until flask became about 90% confluent. This took anywhere from 5-7 days.
The flask was washed with 10 ml of sterile room temperature phosphate buffered saline (PBS). The cells were trypsinized by adding 5 ml of warmed Trypsin-EDTA (Invitrogen) to the flask of cells. […] An equal volume of supplemented media (5 ml) was added to the flask. All the cells were collected into 50 ml tube, and centrifuged at 1000 RPM for 5 minutes at 20° C. The supernatant was aspirated and the cell pellet was resuspended in 10 ml of supplemented media and the cells were counted. 1-3 million cells/flask were seeded into 5-7 tissue culture flasks (175 cm^2). Each flask contained 50 ml of supplemented media. The flasks were incubated until about 90% confluent. The passaging of the cells was repeated until enough cells have been grown for tumor implantation.
The above procedure for trypsinizing and centrifuging the cells were followed. The supernatant was aspirated and the cell pellet was resuspended in 10 ml of sterile PBS and the cells were counted. The cells were centrifuged and then resuspended with appropriate volume of sterile PBS for injection of correct number of cells needed for tumor implantation. In the case of MDA-435, 100 million cells were suspended with 2.0 ml of sterile PBS to a final concentration of 50 million cells/ml in order to inject 5 million cells in 0.1 ml/mouse.
Mice (CD-1 nu/nu) were obtained from Charles River Laboratories: nomenclature: Crl:CD-1-nuBR, Age: 6-8 weeks. The mice were allowed to acclimate for 1 week prior to their being used in an experimental procedure.
Implantation of the MDA-435 tumor cell suspension took place into the corpus adiposum of the female CD-1 nu/nu mouse. […] Tumor cells were implanted subcutaneously into the fat body located in the right quadrant of the abdomen at the juncture of the os coxae (pelvic bone) and the os femoris (femur). 5 million MDA-435 cells in 0.1 ml of sterile PBS were injected using 27 G (½ inch) needle. MDA-435 tumors developed 2-3 weeks after implantation.
Compound stock solutions were prepared by dissolving the compound in cell-culture-grade DMSO (dimethyl sulfoxide) at the desired concentration. This stock solution in DMSO was sonicated in an ultrasonic water bath until all the powder dissolved.

[2] = format: in vivo; settings: mice treated with Paclitaxel and Compound (1); FIG. 2
Description: The in vivo anti-cancer enhancing effect of novel compounds was assessed in tumor bearing mice using the tumor growth inhibition assay. Tumor cells were implanted by injection of a tumor cell suspension subcutaneously in the flank of a mouse. […] Animal then begun a multiple injection schedule where the compound and Paclitaxel were given by IV route of administration. Tumors were measured two times a week. During the course of this assay, animals were monitored daily for signs of toxicity including body weight loss.

Structure (SMILES): CC(=O)O[C@H]1C(=O)[C@@]2(C)[C@H]([C@H](OC(=O)c3ccccc3)[C@]3(O)C[C@H](OC(=O)[C@H](O)[C@@H](NC(=O)c4ccccc4)c4ccccc4)C(C)=C1C3(C)C)[C@]1(OC(C)=O)CO[C@@H]1C[C@@H]2O [Paclitaxel]
- % Tumor Growth ([1]; Example 13, Day 23, Group 2: Paclitaxel 2 mg/kg alone, IV, 3 times a week for 3 weeks): 86%
- % Tumor Growth ([1]; Example 13, Day 23, Group 3: Paclitaxel 5 mg/kg alone, IV, 3 times a week for 3 weeks): 55%
- Average Tumor Volume (mm^3) on Day 23 ([1]; Example 13, Group 2: Paclitaxel 2 mg/kg alone, IV, 3 times a week for 3 weeks): 259.8 mm^3
- Average Tumor Volume (mm^3) on Day 23 ([1]; Example 13, Group 3: Paclitaxel 5 mg/kg alone, IV, 3 times a week for 3 weeks): 164.8 mm^3
- Average Tumor Volume [mm^3] ([1]; Example 14, Day 48, Group 2: Paclitaxel 10 mg/kg alone, IV, 3 times a week for 3 weeks): 105 mm^3 and 105.4 mm^3
- % Tumor Growth Inhibition on Day 48 ([1]; Example 14, Group 2: Paclitaxel 10 mg/kg alone, IV, 3 times a week for 3 weeks): 86%
- Anti-tumor activity ([1]; Example 14: Paclitaxel 10 mg/kg alone, IV, 3 times a week for 3 weeks): significant anti-tumor activity was observed
- Average % Tumor Growth Inhibition on Day 27 ([1]; Example 15, Group 2: Paclitaxel 5 mg/kg alone, IV, 3 times a week for 3 weeks): 19%

Structure (SMILES): CN(NC(=O)CC(=O)NN(C)C(=S)c1ccccc1)C(=S)c1ccccc1 [Compound (1), N-Malonyl-bis[N′-methyl-N′-(thiobenzoyl)hydrazide]]
- Weight loss over the treatment period [2]: little if any weight loss
- Enhancement of anti-tumor activity of Paclitaxel ([1]; Example 12, FIG. 1: Compound (1) 25 or 50 mg/kg + Paclitaxel 5 mg/kg, IV, 3 times a week for 3 weeks): significantly enhanced anti-tumor activity of Paclitaxel
- % Tumor Growth ([1]; Example 13, Day 23, Groups 4-5: compound 80 mg/kg alone, IV, 3 times a week for 3 weeks): 90%
- % Tumor Growth ([1]; Example 13, Day 23, Groups 6 and 8: compound 80 mg/kg + Paclitaxel 2 mg/kg, IV, 3 times a week for 3 weeks): 64%
- % Tumor Growth ([1]; Example 13, Day 23, Groups 7 and 9: compound 80 mg/kg + Paclitaxel 5 mg/kg, IV, 3 times a week for 3 weeks): 35%
- Average Tumor Volume (mm^3) on Day 23 ([1]; Example 13, Groups 4-5: compound 80 mg/kg alone, IV, 3 times a week for 3 weeks): 270.0 mm^3
- Average Tumor Volume (mm^3) on Day 23 ([1]; Example 13, Groups 6 and 8: compound 80 mg/kg + Paclitaxel 2 mg/kg, IV, 3 times a week for 3 weeks): 193.3 mm^3
- Average Tumor Volume (mm^3) on Day 23 ([1]; Example 13, Groups 7 and 9: compound 80 mg/kg + Paclitaxel 5 mg/kg, IV, 3 times a week for 3 weeks): 106.2 mm^3
- Enhancement of anti-tumor activity of Paclitaxel ([1]; Example 13: compound 80 mg/kg + Paclitaxel at both 2 mg/kg and 5 mg/kg, IV, 3 times a week for 3 weeks): significantly enhanced anti-tumor activity of Paclitaxel
- Average Tumor Volume [mm^3] ([1]; Example 14, Day 48, Group 3: Compound (1) 50 mg/kg alone, IV, 3 times a week for 3 weeks): 754.9 mm^3
- Average Tumor Volume [mm^3] ([1]; Example 14, Day 48, Group 4: Compound (1) 25 mg/kg + Paclitaxel 10 mg/kg, IV, 3 times a week for 3 weeks): 0.59 mm^3
- % Tumor Growth Inhibition on Day 48 ([1]; Example 14, Group 3: Compound (1) 50 mg/kg alone, IV, 3 times a week for 3 weeks): 0%
- Tumor volume, fold less than with Paclitaxel alone or Compound (1) alone ([1]; after 24 days of treatment, Paclitaxel 5 mg/kg + Compound (1) 25 mg/kg versus Paclitaxel 5 mg/kg only or Compound (1) 50 mg/kg only, FIG. 1): about five
